# Assays:
# [1] = Bidirectional transport assay on Caco-2 cell monolayers; settings: human; for Papp B→A at 2 h: Caco-2, pH 7.4; for Papp A→B at 2 h: Caco-2, pH 7.4, A→B Transport Papp, pH 7.40; for Papp A→B at 2 h / recovery at 2 h: compound 1, 1a 2 μM, digoxin 10 μM; for Papp A→B at 2 h, 2 μM: Caco-2, pH 7.4, Apparent permeability coefficient (Papp) from AP to BL
# HepG2/Dox cells [2] = assay: CCK-8 cell viability / reversal of P-gp-mediated MDR in HepG2/Dox cells; assay type: cell-based, Human; settings: for IC50: Homo sapiens, HepG2/Dox, anticancer drug alone, CCK-8, read-out: IC50 ± SD HepG2/Dox; for IC50 / Cytotoxicity to HepG2/Dox cells (viability): 48 h; for Fsen (fold increase in sensitivity): drug alone (reference); for Fres (fold of resistance): drug alone, IC50 in HepG2/Dox / IC50 in HepG2; for Cytotoxicity to HepG2/Dox cells (viability): compound alone at 5 or 10 μM; for Reversal of resistance of HepG2/Dox cells to paclitaxel and vinblastine: non-cytotoxic concentrations (10 μM)
# HepG2/Dox cells [3] = assay: Annexin V/PI apoptosis by flow cytometry in HepG2/Dox cells; assay type: cell-based, Human; settings: 24 h; for Apoptosis rates of HepG2/Dox cells: 10 μM in combination with 500 nM paclitaxel, vs PTX alone
# Experimental: Cells were then incubated for another 24 h in 2 mL fresh medium containing the test samples. The medium and cells (digested by EDTA-free trypsin) were collected and centrifuged (1000 rpm, 5 min). The cells were then suspended in PBS and stained using the Annexin V/PI kit by following the procedures provided with the kit, and the apoptosis rate of cells with different treatments was analyzed using flow cytometry.
# caspase 8 = assay: Western blotting of caspase 8 expression in HepG2/Dox cells; assay type: cell-based, Human
# Experimental: (§1) In 100 mm culture dishes, 1 × 10^6 cells in 10 mL medium were seeded and incubated for 24 h, and then incubated with the test sample in 10 mL fresh medium for another 24 h. Total proteins were extracted using RIPA cell lysis buffer containing PMSF while protein content was determined using the BCA kit. An equal amount of the protein sample was subjected to SDS-PAGE for separation and transferred to PVDF membranes. The membranes were blocked in 5% defat milk at RT for 1 h, and then incubated with the primary antibody of the protein of interest (P-gp, caspase 8 or caspase 9) or GAPDH (internal standard) at 4 °C overnight, and then with the secondary antibody at RT for 1 h. Protein bands were detected under the chemiluminescence scanner, while Image J was employed to analyze the gray value of the protein bands.
# caspase 9 = assay: Western blotting of caspase 9 expression in HepG2/Dox cells; assay type: cell-based, Human
# Experimental: as §1
# P-gp [4] = assay: Western blotting of P-gp expression in HepG2/Dox cells; assay type: cell-based, Human; settings: alone or in combination with paclitaxel
# Experimental: as §1
# P-gp [5] = molecular target: T1, P-gp (Homo sapiens, UniProt P08183); assay: Rhodamine 123 efflux assay for P-gp function in HepG2/Dox cells; assay type: cell-based; settings: 10 μM, 5 μM Rh-123, 40 min; vs Rh-123 alone
# T1 construct: Doxorubicin-induced P-gp overexpression HepG2/Dox subline was a gift from Prof; Fong; endogenous in cells; host or cells: HepG2/Dox (doxorubicin-induced P-gp-overexpressing subline of HepG2)
# T1 sequence (P08183 whole entry): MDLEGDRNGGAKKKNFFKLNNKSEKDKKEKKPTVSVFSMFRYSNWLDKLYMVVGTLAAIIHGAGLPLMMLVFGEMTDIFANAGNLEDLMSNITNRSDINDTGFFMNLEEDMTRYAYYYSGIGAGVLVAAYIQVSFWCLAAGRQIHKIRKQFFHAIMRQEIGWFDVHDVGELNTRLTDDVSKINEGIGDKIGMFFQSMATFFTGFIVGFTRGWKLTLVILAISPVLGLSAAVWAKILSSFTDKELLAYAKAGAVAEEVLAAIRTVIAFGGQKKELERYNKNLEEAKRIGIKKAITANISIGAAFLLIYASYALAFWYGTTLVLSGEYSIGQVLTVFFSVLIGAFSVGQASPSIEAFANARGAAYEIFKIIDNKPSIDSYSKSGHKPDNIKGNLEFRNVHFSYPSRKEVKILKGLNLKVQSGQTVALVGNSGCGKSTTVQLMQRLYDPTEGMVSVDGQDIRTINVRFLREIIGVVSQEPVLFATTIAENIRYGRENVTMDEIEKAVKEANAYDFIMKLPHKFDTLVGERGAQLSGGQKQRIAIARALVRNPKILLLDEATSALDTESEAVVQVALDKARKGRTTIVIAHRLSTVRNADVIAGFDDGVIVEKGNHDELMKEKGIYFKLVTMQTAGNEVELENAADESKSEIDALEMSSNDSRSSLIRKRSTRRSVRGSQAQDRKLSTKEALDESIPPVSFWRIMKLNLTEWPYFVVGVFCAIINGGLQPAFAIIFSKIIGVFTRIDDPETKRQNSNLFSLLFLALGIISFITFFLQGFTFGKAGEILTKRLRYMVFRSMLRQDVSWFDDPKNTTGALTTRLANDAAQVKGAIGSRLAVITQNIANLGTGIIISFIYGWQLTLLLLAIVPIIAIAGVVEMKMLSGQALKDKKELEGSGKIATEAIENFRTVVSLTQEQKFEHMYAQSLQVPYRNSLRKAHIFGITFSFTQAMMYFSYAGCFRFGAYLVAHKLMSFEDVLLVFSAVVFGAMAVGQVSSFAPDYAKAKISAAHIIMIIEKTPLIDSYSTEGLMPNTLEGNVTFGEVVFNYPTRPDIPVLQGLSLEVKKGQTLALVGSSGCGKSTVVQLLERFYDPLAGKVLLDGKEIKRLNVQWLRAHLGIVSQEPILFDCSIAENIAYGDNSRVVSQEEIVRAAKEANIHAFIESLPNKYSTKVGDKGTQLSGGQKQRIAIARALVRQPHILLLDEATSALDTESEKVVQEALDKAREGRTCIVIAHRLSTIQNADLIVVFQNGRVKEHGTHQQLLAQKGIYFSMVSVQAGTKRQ
# Experimental: After removal of the medium via centrifugation, the cells were washed with ice-cold PBS twice, resuspended in 300 μL ice-cold PBS, and transferred into flow cytometer tubes. Cellular fluorescence intensity was analyzed immediately using flow cytometry.
# Human ABCB1 = molecular target: T2, Human ABCB1 (Homo sapiens, UniProt P08183); assay: Surface plasmon resonance binding to full-length ABCB1 (Biacore); settings: SPR; for Kd: CM5 chip, read-out: KD (equilibrium dissociation constant)
# T2 construct: Flag; purchased MedChemExpress HY-P703175; host or cells: HEK293
# T2 sequence (P08183 whole entry): as above
# Experimental: The human recombinant ABCB1 full-length protein (HEK293, Flag) (MedChemExpress, Monmouth Junction, NJ, USA; #HY-P703175) was coupled onto a CM5 sensor chip (Cytiva, Marlborough, MA, USA; #BR-1005-30) via carboxyl groups on the dextran. After incubation, a series of concentrations of compound 1 or 1a flowed through the protein–CM5 system. Binding was tested and analyzed using a Biacore K8 instrument (GE Healthcare, Chicago, IL, USA) and Biacore Insight evaluation software (https://www.cytivalifesciences.com/en/us, accessed on 5 August 2025) (Cytiva, Marlborough, MA, USA).
# Caco-2 cell monolayers = assay: Bidirectional transport assay on Caco-2 cell monolayers; settings: from ER values of less than 2
# [6] = Caco-2, pH 7.4, A→B Transport Solution Recovery %
# [7] = Caco-2, pH 7.4, B→A Transport Solution Recovery %
# [8] = alone: paclitaxel 0.5 μM, compound 1 or 1a 10 μM
# [9] = 10 μM combined with paclitaxel 0.5 μM
compound,measurement,setting,value
"C[C@H]1O[C@@H](O[C@H]2[C@@H](O)C[C@H](O[C@H]3[C@@H](O)C[C@H](O[C@H]4CC[C@@]5(C)[C@H](CC[C@@H]6[C@@H]5C[C@@H](O)[C@]5(C)[C@@H](C7=CC(=O)OC7)CC[C@]65O)C4)O[C@@H]3C)O[C@@H]2C)C[C@H](O)[C@@H]1O [Digoxin, reference compound]",Papp B→A at 2 h,[1],22.3 ± 1.02 ×10⁻⁶ cm/s
same,Papp A→B at 2 h,[1],0.12 ± 0.02 ×10⁻⁶ cm/s
same,recovery at 2 h,[1]; [6],97.9 ± 8.1%
same,recovery at 2 h,[1]; [7],94.4 ± 1.9%
"COc1ccc(CCN(C)CCCC(C#N)(c2ccc(OC)c(OC)c2)C(C)C)cc1OC (stereo not drawn) [VRP, Verapamil, reference compound]",Fres to doxorubicin,HepG2/Dox cells [2]; doxorubicin + modulator 10 µM,1.1
same,Fres to paclitaxel,HepG2/Dox cells [2]; paclitaxel + modulator 10 µM,1.3
same,Fres to vinblastine,HepG2/Dox cells [2]; vinblastine + modulator 10 µM,2.1
same,Apoptosis rates of HepG2/Dox cells,HepG2/Dox cells [3],significantly increased
"CC[C@]1(O)C[C@@H]2CN(CCc3c([nH]c4ccccc34)[C@@](C(=O)OC)(c3cc4c(cc3OC)N(C)[C@H]3[C@@](O)(C(=O)OC)[C@H](OC(C)=O)[C@]5(CC)C=CCN6CC[C@]43[C@@H]65)C2)C1 [Vinblastine, reference compound]",IC50,HepG2/Dox cells [2],2.38 ± 0.62 µM
same,Fsen (fold increase in sensitivity),HepG2/Dox cells [2],1
same,Fres (fold of resistance),HepG2/Dox cells [2],140.0
same,Fres (fold of resistance),HepG2/Dox cells [2]; listed as vinblastine,140
"CC(=O)O[C@H]1C(=O)[C@@]2(C)[C@H]([C@H](OC(=O)c3ccccc3)[C@]3(O)C[C@H](OC(=O)[C@H](O)[C@@H](NC(=O)c4ccccc4)c4ccccc4)C(C)=C1C3(C)C)[C@]1(OC(C)=O)CO[C@@H]1C[C@@H]2O [Paclitaxel, reference compound]",IC50,HepG2/Dox cells [2],4.03 ± 0.06 µM
same,Cell apoptosis in HepG2/Dox cells,HepG2/Dox cells [3]; 500 nM alone,did not induce cell apoptosis
same,Expression of caspase 8,caspase 8; [8],did not change
same,Expression of caspase 9,caspase 9; [8],did not change
"CC(O)C1(O)CCC2(O)C3CCC4CC(OC(=O)c5cccnc5)CCC4(C)C3CC(OC(=O)C=Cc3ccccc3)C12C [Compound 1a, 3β,12β,14β,17β,20(S)-pentahydroxy-5α-pregnan-3β-O-nicotinate-12β-O-(E)-cinnamate]",Cytotoxicity to HepG2/Dox cells (viability),HepG2/Dox cells [2],non-cytotoxic
same,Fres to doxorubicin,HepG2/Dox cells [2]; doxorubicin + modulator 5 µM,1.9
same,Fsen to doxorubicin,HepG2/Dox cells [2]; doxorubicin + modulator 5 µM,18.8
same,Fres to doxorubicin,HepG2/Dox cells [2]; doxorubicin + modulator 10 µM,4.1
same,Fsen to doxorubicin (reversal fold),HepG2/Dox cells [2]; doxorubicin + modulator 10 µM,18.8
same,Fsen to doxorubicin (reversal fold),"HepG2/Dox cells [2]; doxorubicin + modulator 10 µM, listed as compound 1a",8.6
same,Reversal of resistance of HepG2/Dox cells to paclitaxel and vinblastine,HepG2/Dox cells [2],completely reversed
same,Fres to paclitaxel,HepG2/Dox cells [2]; paclitaxel + modulator 5 µM,0.8
same,Fsen to paclitaxel,HepG2/Dox cells [2]; paclitaxel + modulator 5 µM,155.0
same,Fres to paclitaxel,HepG2/Dox cells [2]; paclitaxel + modulator 10 µM,0.4
same,Fsen to paclitaxel (reversal fold),HepG2/Dox cells [2]; paclitaxel + modulator 10 µM,335.8
same,Fres to vinblastine,HepG2/Dox cells [2]; vinblastine + modulator 5 µM,1.8
same,Fsen to vinblastine,HepG2/Dox cells [2]; vinblastine + modulator 5 µM,79.3
same,Fres to vinblastine,HepG2/Dox cells [2]; vinblastine + modulator 10 µM,1.0
same,Fsen to vinblastine (reversal fold),HepG2/Dox cells [2]; vinblastine + modulator 10 µM,140
same,Apoptosis rates of HepG2/Dox cells,HepG2/Dox cells [3],significantly increased
same,Expression of caspase 8,caspase 8; [9],did not change
same,Expression of caspase 8,caspase 8; [8],did not change
same,Expression of caspase 9,caspase 9; [9],significantly upregulated
same,Expression of caspase 9,caspase 9; [8],did not change
same,Expression level of cellular P-gp,P-gp [4],did not influence
same,Fluorescence intensity of Rh-123 in cells (inhibited efflux),P-gp [5],significantly increased
same,Ka (association rate constant),Human ABCB1,41600 M⁻¹ s⁻¹
same,Kd (dissociation rate constant),Human ABCB1,0.155 s⁻¹
same,Kd,Human ABCB1,3.72 µM
same,Ka (association rate constant),Human ABCB1; listed as compound 1a,> 10^4 M^−1s^−1
same,koff,Human ABCB1; read-out: Kd (dissociation rate constant),> 0.1 s⁻¹
same,Papp B→A at 2 h,[1],0.24 ± 0.02 ×10⁻⁶ cm/s
same,"Papp A→B at 2 h, 2 μM",[1],0.27 ×10⁻⁶ cm/s
same,Papp A→B at 2 h,[1],0.27 ± 0.03 ×10⁻⁶ cm/s
same,recovery at 2 h,[1]; [6],5.3 ± 0.5%
same,recovery at 2 h,[1]; [7],12.2 ± 0.7%
same,P-gp substrate status,Caco-2 cell monolayers,not P-gp substrates
"CC(O)C1(O)CCC2(O)C3CCC4CC(O)CCC4(C)C3CC(OC(=O)C=Cc3ccccc3)C12C [Compound 1, 3β,12β,14β,17β,20(S)-pentahydroxy-5α-pregnan-12β-O-(E)-cinnamate]",Cytotoxicity to HepG2/Dox cells (viability),HepG2/Dox cells [2],non-cytotoxic
same,Fres to doxorubicin,HepG2/Dox cells [2]; doxorubicin + modulator 5 µM,13.7
same,Fsen to doxorubicin,HepG2/Dox cells [2]; doxorubicin + modulator 5 µM,2.6
same,Fres to doxorubicin,HepG2/Dox cells [2]; doxorubicin + modulator 10 µM,5.0
same,Fsen to doxorubicin (reversal fold),HepG2/Dox cells [2]; doxorubicin + modulator 10 µM,7.1
same,Reversal of resistance of HepG2/Dox cells to paclitaxel and vinblastine,HepG2/Dox cells [2],completely reversed
same,Fres to paclitaxel,HepG2/Dox cells [2]; paclitaxel + modulator 5 µM,3.9
same,Fsen to paclitaxel,HepG2/Dox cells [2]; paclitaxel + modulator 5 µM,33.6
same,Fres to paclitaxel,HepG2/Dox cells [2]; paclitaxel + modulator 10 µM,1.1
same,Fsen to paclitaxel (reversal fold),HepG2/Dox cells [2]; paclitaxel + modulator 10 µM,118.5
same,Fres to vinblastine,HepG2/Dox cells [2]; vinblastine + modulator 5 µM,1.5
same,Fsen to vinblastine,HepG2/Dox cells [2]; vinblastine + modulator 5 µM,91.5
same,Fres to vinblastine,HepG2/Dox cells [2]; vinblastine + modulator 10 µM,0.7
same,Fsen to vinblastine (reversal fold),HepG2/Dox cells [2]; vinblastine + modulator 10 µM,198.3
same,Apoptosis rates of HepG2/Dox cells,HepG2/Dox cells [3],significantly increased
same,Expression of caspase 8,caspase 8; [9],did not change
same,Expression of caspase 8,caspase 8; [8],did not change
same,Expression of caspase 9,caspase 9; [9],significantly upregulated
same,Expression of caspase 9,caspase 9; [8],did not change
same,Expression level of cellular P-gp,P-gp [4],did not influence
same,Fluorescence intensity of Rh-123 in cells (inhibited efflux),P-gp [5],significantly increased
same,Ka (association rate constant),Human ABCB1,65800 M⁻¹ s⁻¹
same,Kd (dissociation rate constant),Human ABCB1,0.364 s⁻¹
same,Kd,Human ABCB1,5.53 µM
same,Ka (association rate constant),Human ABCB1; listed as compound 1,> 10^4 M^−1s^−1
same,Kd (dissociation rate constant),Human ABCB1; listed as compound 1,> 10^−1 s^−1
same,Papp B→A at 2 h,[1],7.71 ± 0.61 ×10⁻⁶ cm/s
same,"Papp A→B at 2 h, 2 μM",[1],9.28 ×10⁻⁶ cm/s
same,Papp A→B at 2 h,[1],9.28 ± 0.88 ×10⁻⁶ cm/s
same,recovery at 2 h,[1]; [6],44.6 ± 2.3%
same,recovery at 2 h,[1]; [7],50.4 ± 1.7%
same,P-gp substrate status,Caco-2 cell monolayers,not P-gp substrates
"COc1cccc2c1C(=O)c1c(O)c3c(c(O)c1C2=O)C[C@@](O)(C(=O)CO)C[C@@H]3O[C@H]1C[C@H](N)[C@H](O)[C@H](C)O1 [Doxorubicin, reference compound]",IC50,HepG2/Dox cells [2],6.03 ± 1.15 µM
same,Fsen (fold increase in sensitivity),HepG2/Dox cells [2],1
same,Fres (fold of resistance),HepG2/Dox cells [2],35.5
